# Source: patent US20110245284A1, “Alkoxy- and Alkylthio-Substituted Anilinopyrimidines” (Bayer CropScience AG, priority 2008, published 2011)
# Tested on: Leptosphaeria nodorum
# Experiment: Leptosphaeria nodorum test (wheat) / protective
# Type: in vivo
# Conditions: Parastagonospora nodorum, active compound concentration 500 ppm, evaluation 7-9 days after inoculation, read-out: efficacy
# Description: Thereafter, the plants are placed in a greenhouse at 90% relative atmospheric humidity and a temperature of 22° C.
row,SMILES,pest or weed control at 500 ppm
1,CCC(SC)c1cccc(Nc2ncc(C(F)(F)F)c(NC3CC3)n2)c1 (stereo not drawn) [Example 62],≥ 70%
2,COC(C)(C)Cc1cccc(Nc2ncc(Cl)c(NC3CC3)n2)c1 [Example 64],≥ 70%
3,CC[S+]([O-])C(C)c1cccc(Nc2ncc(Cl)c(NC3CCC3)n2)c1 (stereo not drawn) [Example 76],≥ 70%
4,CCS(=O)(=O)C(C)c1cccc(Nc2ncc(Cl)c(NC3CCC3)n2)c1 (stereo not drawn) [Example 77],≥ 70%
5,COC(C)c1cccc(Nc2ncc(Cl)c(NCC(F)(F)F)n2)c1 (stereo not drawn) [Example 83],≥ 70%
6,CCC[S+]([O-])c1cccc(Nc2ncc(Cl)c(NC3CCC3)n2)c1 (stereo not drawn) [Example 100],≥ 70%
7,CCCCSc1cccc(Nc2ncc(Cl)c(NC3CCC3)n2)c1 [Example 106],≥ 70%
8,CCCCS(=O)(=O)c1cccc(Nc2ncc(C(F)(F)F)c(NC3CC3)n2)c1 [Example 121],≥ 70%
9,COC(C)c1cccc(Nc2ncc(Cl)c(NC(C)C)n2)c1 (stereo not drawn) [Example 129],≥ 70%

# Tested on: not listed separately
# Experiment: logP by LC-MS on reversed-phase columns (C 18), method [b], acidic range pH 2.7
# Type: physicochemical
# Conditions: pH 2.7
# Description: (§1) The logP values were determined in accordance with EEC Directive 79/831 Annex V.A8 by HPLC (High Performance Liquid Chromatography) on reversed-phase columns (C 18), using the methods below:
# [b] The LC-MS determination in the acidic range is carried out at pH 2.7 using the mobile phases 0.1% aqueous formic acid and acetonitrile (contains 0.1% formic acid), linear gradient from 10% acetonitrile to 95% acetonitrile.
row,SMILES,log p
1,CC[S+]([O-])C(C)c1cccc(Nc2ncc(C(F)(F)F)c(NC3CC3)n2)c1 (stereo not drawn) [Example 45],2.2[b]

# Same assay, conditions: pH 2.7, log p
row,SMILES,chromatographic logP
1,CCC(SC)c1cccc(Nc2ncc(C(F)(F)F)c(NC3CC3)n2)c1 (stereo not drawn) [Example 62],4.23
2,COC(C)(C)Cc1cccc(Nc2ncc(Cl)c(NC3CC3)n2)c1 [Example 64],2.21
3,CC[S+]([O-])C(C)c1cccc(Nc2ncc(Cl)c(NC3CCC3)n2)c1 (stereo not drawn) [Example 76],1.68
4,CCS(=O)(=O)C(C)c1cccc(Nc2ncc(Cl)c(NC3CCC3)n2)c1 (stereo not drawn) [Example 77],1.9
5,COC(C)c1cccc(Nc2ncc(Cl)c(NCC(F)(F)F)n2)c1 (stereo not drawn) [Example 83],2.82
6,CCC[S+]([O-])c1cccc(Nc2ncc(Cl)c(NC3CCC3)n2)c1 (stereo not drawn) [Example 100],2.09
7,CCCCSc1cccc(Nc2ncc(Cl)c(NC3CCC3)n2)c1 [Example 106],4.28
8,CCCCS(=O)(=O)c1cccc(Nc2ncc(C(F)(F)F)c(NC3CC3)n2)c1 [Example 121],3.4
9,COC(C)c1cccc(Nc2ncc(Cl)c(NC(C)C)n2)c1 (stereo not drawn) [Example 129],2.02

# Tested on: not listed separately
# Experiment: logP by LC-MS on reversed-phase columns (C 18), method [c], neutral range pH 7.8
# Type: physicochemical
# Conditions: pH 7.8
# Description: as §1
# [c] The LC-MS determination in the neutral range is carried out at pH 7.8 using the mobile phases 0.001 molar aqueous ammonium bicarbonate solution and acetonitrile, linear gradient from 10% acetonitrile to 95% acetonitrile.
row,SMILES,chromatographic logP
1,COC(C)(C)Cc1cccc(Nc2ncc(Cl)c(NC3CC3)n2)c1 [Example 64],3.81
2,CC[S+]([O-])C(C)c1cccc(Nc2ncc(Cl)c(NC3CCC3)n2)c1 (stereo not drawn) [Example 76],2.53
3,CCS(=O)(=O)C(C)c1cccc(Nc2ncc(Cl)c(NC3CCC3)n2)c1 (stereo not drawn) [Example 77],2.98
4,COC(C)c1cccc(Nc2ncc(Cl)c(NCC(F)(F)F)n2)c1 (stereo not drawn) [Example 83],3.18
5,CCCCSc1cccc(Nc2ncc(Cl)c(NC3CCC3)n2)c1 [Example 106],5.13
6,CCCCS(=O)(=O)c1cccc(Nc2ncc(C(F)(F)F)c(NC3CC3)n2)c1 [Example 121],3.46
7,COC(C)c1cccc(Nc2ncc(Cl)c(NC(C)C)n2)c1 (stereo not drawn) [Example 129],3.67

# Tested on: Pyrenophora teres
# Experiment: Pyrenophora teres test (barley) / protective
# Type: in vivo
# Conditions: 192 h, active compound concentration 500 ppm, evaluation 8 days after inoculation, read-out: efficacy
# Description: After the spray coating has dried on, the plants are sprayed with a spore suspension of Pyrenophora teres. The plants remain in an incubation cabinet for 48 hours at 20° C. and 100% relative atmospheric humidity.
row,SMILES,pest or weed control at 500 ppm
1,COC(C)(C)Cc1cccc(Nc2ncc(Cl)c(NC3CC3)n2)c1 [Example 64],≥ 70%
2,CC[S+]([O-])C(C)c1cccc(Nc2ncc(Cl)c(NC3CCC3)n2)c1 (stereo not drawn) [Example 76],≥ 70%
3,CCS(=O)(=O)C(C)c1cccc(Nc2ncc(Cl)c(NC3CCC3)n2)c1 (stereo not drawn) [Example 77],≥ 70%

# Tested on: Rhizoctonia solani
# Experiment: Rhizoctonia test (rice) / protective
# Type: in vivo
# Conditions: 96 h, active compound concentration 250 ppm, evaluation 4 days after inoculation, read-out: efficacy
row,SMILES,pest or weed control at 250 ppm
1,CCC(SC)c1cccc(Nc2ncc(C(F)(F)F)c(NC3CC3)n2)c1 (stereo not drawn) [Example 62],≥ 80%
2,CC[S+]([O-])C(C)c1cccc(Nc2ncc(Cl)c(NC3CCC3)n2)c1 (stereo not drawn) [Example 76],≥ 80%
3,CCS(=O)(=O)C(C)c1cccc(Nc2ncc(Cl)c(NC3CCC3)n2)c1 (stereo not drawn) [Example 77],≥ 80%
4,COC(C)c1cccc(Nc2ncc(Cl)c(NCC(F)(F)F)n2)c1 (stereo not drawn) [Example 83],≥ 80%
5,CCC[S+]([O-])c1cccc(Nc2ncc(Cl)c(NC3CCC3)n2)c1 (stereo not drawn) [Example 100],≥ 80%
6,CCCCSc1cccc(Nc2ncc(Cl)c(NC3CCC3)n2)c1 [Example 106],≥ 80%
7,CCCCS(=O)(=O)c1cccc(Nc2ncc(C(F)(F)F)c(NC3CC3)n2)c1 [Example 121],≥ 80%
8,COC(C)c1cccc(Nc2ncc(Cl)c(NC(C)C)n2)c1 (stereo not drawn) [Example 129],≥ 80%

# Tested on: Pyricularia oryzae
# Experiment: whole plant or invertebrate
# Type: in vivo
# Conditions: 120 h, read-out: efficacy
row,SMILES,pest or weed control at 250 ppm
1,CCC(SC)c1cccc(Nc2ncc(C(F)(F)F)c(NC3CC3)n2)c1 (stereo not drawn) [Example 62],≥ 80%
2,COC(C)(C)Cc1cccc(Nc2ncc(Cl)c(NC3CC3)n2)c1 [Example 64],≥ 80%
3,CC[S+]([O-])C(C)c1cccc(Nc2ncc(Cl)c(NC3CCC3)n2)c1 (stereo not drawn) [Example 76],≥ 80%
4,CCS(=O)(=O)C(C)c1cccc(Nc2ncc(Cl)c(NC3CCC3)n2)c1 (stereo not drawn) [Example 77],≥ 80%
5,COC(C)c1cccc(Nc2ncc(Cl)c(NCC(F)(F)F)n2)c1 (stereo not drawn) [Example 83],≥ 80%
6,CCC[S+]([O-])c1cccc(Nc2ncc(Cl)c(NC3CCC3)n2)c1 (stereo not drawn) [Example 100],≥ 80%
7,CCCCSc1cccc(Nc2ncc(Cl)c(NC3CCC3)n2)c1 [Example 106],≥ 80%
8,CCCCS(=O)(=O)c1cccc(Nc2ncc(C(F)(F)F)c(NC3CC3)n2)c1 [Example 121],≥ 80%
9,COC(C)c1cccc(Nc2ncc(Cl)c(NC(C)C)n2)c1 (stereo not drawn) [Example 129],≥ 80%

# Tested on: Cochliobolus miyabeanus
# Experiment: Cochliobolus test (rice) / protective
# Conditions: Bipolaris oryzae, in Oryza sativa, 96 h, read-out: efficacy
# Description: Cochliobolus Test (Rice)/Protective • Solvent: 28.5 parts by weight of acetone • Emulsifier: 1.5 parts by weight of alkylaryl polyglycol ether
# 1 day after the treatment, the plants are inoculated with an aqueous spore suspension of Cochliobolus miyabeanus. The plants are then placed in a greenhouse at 100% relative atmospheric humidity and 25° C.
# Evaluation is carried out 4 days after the inoculation.
row,SMILES,pest or weed control at 250 ppm
1,CCC(SC)c1cccc(Nc2ncc(C(F)(F)F)c(NC3CC3)n2)c1 (stereo not drawn) [Example 62],≥ 80%
2,CC[S+]([O-])C(C)c1cccc(Nc2ncc(Cl)c(NC3CCC3)n2)c1 (stereo not drawn) [Example 76],≥ 80%
3,CCS(=O)(=O)C(C)c1cccc(Nc2ncc(Cl)c(NC3CCC3)n2)c1 (stereo not drawn) [Example 77],≥ 80%
4,COC(C)c1cccc(Nc2ncc(Cl)c(NCC(F)(F)F)n2)c1 (stereo not drawn) [Example 83],≥ 80%
5,CCC[S+]([O-])c1cccc(Nc2ncc(Cl)c(NC3CCC3)n2)c1 (stereo not drawn) [Example 100],≥ 80%
6,CCCCSc1cccc(Nc2ncc(Cl)c(NC3CCC3)n2)c1 [Example 106],≥ 80%
7,CCCCS(=O)(=O)c1cccc(Nc2ncc(C(F)(F)F)c(NC3CC3)n2)c1 [Example 121],≥ 80%
8,COC(C)c1cccc(Nc2ncc(Cl)c(NC(C)C)n2)c1 (stereo not drawn) [Example 129],≥ 80%

# Tested on: Alternaria solani
# Experiment: Alternaria test (tomato) / protective
# Type: in vivo
# Conditions: 72 h, active compound concentration 100 ppm, evaluation 3 days after inoculation, read-out: efficacy
# Description: The plants are then placed in an incubation cabinet at about 20° C. and 100% relative atmospheric humidity.
row,SMILES,pest or weed control at 100 ppm
1,CCC(SC)c1cccc(Nc2ncc(C(F)(F)F)c(NC3CC3)n2)c1 (stereo not drawn) [Example 62],≥ 70%
2,COC(C)(C)Cc1cccc(Nc2ncc(Cl)c(NC3CC3)n2)c1 [Example 64],≥ 70%
3,CC[S+]([O-])C(C)c1cccc(Nc2ncc(Cl)c(NC3CCC3)n2)c1 (stereo not drawn) [Example 76],≥ 70%
4,CCS(=O)(=O)C(C)c1cccc(Nc2ncc(Cl)c(NC3CCC3)n2)c1 (stereo not drawn) [Example 77],≥ 70%
5,COC(C)c1cccc(Nc2ncc(Cl)c(NCC(F)(F)F)n2)c1 (stereo not drawn) [Example 83],≥ 70%
6,CCC[S+]([O-])c1cccc(Nc2ncc(Cl)c(NC3CCC3)n2)c1 (stereo not drawn) [Example 100],≥ 70%
7,CCCCSc1cccc(Nc2ncc(Cl)c(NC3CCC3)n2)c1 [Example 106],≥ 70%
8,CCCCS(=O)(=O)c1cccc(Nc2ncc(C(F)(F)F)c(NC3CC3)n2)c1 [Example 121],≥ 70%
9,COC(C)c1cccc(Nc2ncc(Cl)c(NC(C)C)n2)c1 (stereo not drawn) [Example 129],≥ 70%

# Tested on: Sphaerotheca fuliginea
# Experiment: Sphaerotheca test (cucumber) / protective
# Type: in vivo
# Conditions: Podosphaera fuliginea, 168 h, active compound concentration 500 ppm, evaluation 7 days after inoculation, read-out: efficacy
# Description: The plants are subsequently placed in a greenhouse at 70% relative atmospheric humidity and a temperature of 23° C.
row,SMILES,pest or weed control at 500 ppm
1,CCC(SC)c1cccc(Nc2ncc(C(F)(F)F)c(NC3CC3)n2)c1 (stereo not drawn) [Example 62],≥ 70%
2,CC[S+]([O-])C(C)c1cccc(Nc2ncc(Cl)c(NC3CCC3)n2)c1 (stereo not drawn) [Example 76],≥ 70%
3,CCS(=O)(=O)C(C)c1cccc(Nc2ncc(Cl)c(NC3CCC3)n2)c1 (stereo not drawn) [Example 77],≥ 70%
4,COC(C)c1cccc(Nc2ncc(Cl)c(NCC(F)(F)F)n2)c1 (stereo not drawn) [Example 83],≥ 70%
5,CCCCS(=O)(=O)c1cccc(Nc2ncc(C(F)(F)F)c(NC3CC3)n2)c1 [Example 121],≥ 70%
6,COC(C)c1cccc(Nc2ncc(Cl)c(NC(C)C)n2)c1 (stereo not drawn) [Example 129],≥ 70%

# Tested on: Fusarium proliferatum
# Experiment: Production of fumonisin FB1 by Fusarium proliferatum (microtitre plates; FB1 by HPLC-MS/MS, growth by OD620)
# Type: cell-based
# Conditions: Fusarium proliferatum, 144 h, read-out: pI50 Fum
row,SMILES,IC50
1,CCC(SC)c1cccc(Nc2ncc(C(F)(F)F)c(NC3CC3)n2)c1 (stereo not drawn) [Example 62],15.8 µM
2,COC(C)(C)Cc1cccc(Nc2ncc(Cl)c(NC3CC3)n2)c1 [Example 64],0.631 µM

# Same assay, conditions: Fusarium proliferatum, 144 h; growth, OD620 at the beginning and after 6 days; read-out: pI50 growth (converted)
row,SMILES,IC50
1,CCC(SC)c1cccc(Nc2ncc(C(F)(F)F)c(NC3CC3)n2)c1 (stereo not drawn) [Example 62],> 50.1 µM
2,COC(C)(C)Cc1cccc(Nc2ncc(Cl)c(NC3CC3)n2)c1 [Example 64],5.01 µM

# Same assay, conditions: fumonisin FB1 production, 6 days at 20° C., HPLC-MS/MS
row,SMILES,pI50 Fum
1,CC[S+]([O-])C(C)c1cccc(Nc2ncc(C(F)(F)F)c(NC3CC3)n2)c1 (stereo not drawn) [Example 45],5.0

# Same assay, conditions: growth, OD620 at the beginning and after 6 days
row,SMILES,pI50 growth
1,CC[S+]([O-])C(C)c1cccc(Nc2ncc(C(F)(F)F)c(NC3CC3)n2)c1 (stereo not drawn) [Example 45],4.7

# Tested on: Venturia inaequalis
# Experiment: Venturia test (apple) / protective
# Type: in vivo
# Conditions: 240 h, active compound concentration 100 ppm, evaluation 10 days after inoculation, read-out: efficacy
# Description: After the spray coating has dried on, the plants are inoculated with an aqueous conidia suspension of the apple scab pathogen Venturia inaequalis and then remain for 1 day in an incubation cabinet at about 20° C. and 100% relative atmospheric humidity.
row,SMILES,pest or weed control at 100 ppm
1,CCC(SC)c1cccc(Nc2ncc(C(F)(F)F)c(NC3CC3)n2)c1 (stereo not drawn) [Example 62],≥ 70%
2,COC(C)(C)Cc1cccc(Nc2ncc(Cl)c(NC3CC3)n2)c1 [Example 64],≥ 70%
3,CC[S+]([O-])C(C)c1cccc(Nc2ncc(Cl)c(NC3CCC3)n2)c1 (stereo not drawn) [Example 76],≥ 70%
4,CCS(=O)(=O)C(C)c1cccc(Nc2ncc(Cl)c(NC3CCC3)n2)c1 (stereo not drawn) [Example 77],≥ 70%
5,COC(C)c1cccc(Nc2ncc(Cl)c(NCC(F)(F)F)n2)c1 (stereo not drawn) [Example 83],≥ 70%
6,CCC[S+]([O-])c1cccc(Nc2ncc(Cl)c(NC3CCC3)n2)c1 (stereo not drawn) [Example 100],≥ 70%
7,CCCCSc1cccc(Nc2ncc(Cl)c(NC3CCC3)n2)c1 [Example 106],≥ 70%
8,CCCCS(=O)(=O)c1cccc(Nc2ncc(C(F)(F)F)c(NC3CC3)n2)c1 [Example 121],≥ 70%
9,COC(C)c1cccc(Nc2ncc(Cl)c(NC(C)C)n2)c1 (stereo not drawn) [Example 129],≥ 70%
